From patent US5179113A, “Treatment of central nervous disorders with imidazole compounds” (E. I. Du Pont de Nemours and Company, priority 1991, dated 1993)
Entries after “also recorded” stand apart in the source; their conditions may differ. Where a name gives a salt, the structure may show the parent alone.

Columns and labels:
[1] = tested on: AII-2 receptors in the brain; assay: Binding of AII antagonists to brain slices, AII-2 sites; conditions: majority of binding sites
[2] = tested on: AII receptor subtype-1 (AII-1); conditions: rat adrenal cortex; cited from earlier work
[3] = tested on: AII receptor subtype-2 (AII-2); conditions: rat adrenal cortex; cited from earlier work
[4] = tested on: AII-1 receptors in the brain; assay: Binding of AII antagonists to brain slices, AII-1 sites; conditions: clusters of AII-1 sites
[5] = tested on: male Sprague-Dawley rats (renin-induced amnesia); assay: Renin-disrupted passive avoidance retention; assay type: in vivo, rat; conditions: for effect on renin-induced amnesia (in words): co-administered with renin IVT
Experimental: Experimentally naive male Sprague-Dawley rats […] (Charles River Breeding Laboratories, Kingston, N.Y.), weighing between 175 to 200 gm were used. The animals were housed four per cage (45.0(L)×20.0(H)×26.0(W) cm) with free access to food and water. They were maintained on a 12 h light/dark cycle (lights on 600 h) and at a room temperature of 22°±1° C. with relative humidity of 50±10%. The experimental sessions were conducted in a two-compartment passive avoidance box. One compartment, made of clear plastic with a perforated clear plastic floor, measured 21(L)×24.5(H)×17(W) cm and was illuminated with a 60 watt incandescent light bulb placed 36 cm above the floor. The other compartment, made of black plastic, measured 30.5(L)×20.3(H)×21.5(W) cm with a floor made of 4 mm stainless steel rods spaced 1.2 cm apart. A grid floor shocker (Coulbourn Instruments) was connected to the steel rods and provided scrambled footshock. The two compartments were separated by a solenoid-operated slide door (Lafayette Instrument Co., Lafayette, Ind.). An electronic counter (Coulbourn Instruments), triggered by the opening or closing of the slide door, recorded acquisition and retention latencies (latencies were defined as the time it took an animal to enter the dark compartment). Passive avoidance training began by placing the rat into the clear compartment of the two-compartment passive avoidance box. Following a 10 sec delay, the slide door to the dark compartment was raised. Once the rat moved completely into the dark compartment (all four paws on the shock grid floor) the slide door was lowered, and after a 10 sec delay, a 1.0 mA shock was applied to the grid floor for three sec. A second three sec shock was delivered after an additional 10 sec delay. The rats were immediately removed from the dark compartment and returned to their home cage. A retention test was given 24 h later. It proceeded in the same manner as the training session except that no shock was applied to the grid floor when the rats were provided access to the dark compartment for a maximum of 300 sec. […] All drugs were administered IVT 60 minutes prior to acquisition training in a volume of 5 μl. Doses are expressed as the free base weight of each compound.

AII-1 receptor = assay: AII receptor antagonism, subtype AII-1, as stated; conditions: stated in words, no data
[6] = tested on: eight arm radial maze performance in rats; conditions: 3 mg/kg IP; Usinger et al. 1988; cited from earlier work
[7] = tested on: memory of previously learned tasks; conditions: EP 288,907; cited from earlier work
[8] = tested on: retention of a passive avoidance (PA) response in rats; conditions: injected into dorsal neostriatum; Morgan and Routtenberg 1977; cited from earlier work
[9] = tested on: release of ACh in entorhinal cortex from rat brain; conditions: in vitro; Barnes et al. 1989; cited from earlier work
[10] = tested on: AII in cerebrospinal fluid (CSF); conditions: renin into lateral ventricle; AII increased from 40; Koller et al. 1975; cited from earlier work

Molecule: O[C@H](CS)[C@H](O)CS (racemic) [DTT, dithiothreitol]
- sensitivity of AII-2 binding sites in brain [1]: DTT-insensitive
- sensitivity of AII-1 receptor to inactivation by DTT [2]: particularly sensitive to inactivation
- sensitivity of AII-2 receptor to inactivation by DTT [3]: resistant to DTT inactivation
- sensitivity of AII-1 binding sites in brain [4]: DTT-sensitive

Molecule: CCCc1nc(C(F)(F)F)c(C(=O)O)n1Cc1ccc(-c2ccccc2-c2nn[nH]n2)cc1 [Compound C, sodium salt of 2-n-propyl-1-[(2'-(1H-tetrazol-5-yl)biphenyl-4-yl)methyl]-4-trifluoromethylimidazole-5-carboxylic acid]
- effect on renin-induced amnesia (in words) [5]: protected against the amnesia
- AII-1 receptor antagonism (AII-1 receptor): AII-1 receptor antagonists

Molecule: CCCc1nc(C(F)(F)F)c(CO)n1Cc1ccc(-c2ccccc2-c2nn[nH]n2)cc1 [Compound D, sodium salt of 2-n-propyl-5-hydroxymethyl-1-[(2'-(1H-tetrazol-5-yl)biphenyl-4-yl)methyl]-4-trifluoromethylimidazole]
- effect on renin-induced amnesia (in words) [5]: protected against the amnesia
- AII-1 receptor antagonism (AII-1 receptor): AII-1 receptor antagonists

Molecule: Cc1cc(Cn2cnc3c2CC(C(=O)O)N(C(=O)C(c2ccccc2)c2ccccc2)C3)ccc1N (stereo not drawn) [EXP655, 1-(4-amino-3-methylphenyl)methyl-5-diphenylacetyl-4,5,6,7-tetrahydro-1H-imidazo[4,5-c]pyridine-6-carboxylic acid]
- effect on renin-induced amnesia (in words) [5]: much less effective in preventing the amnesia
- sensitivity of AII-2 binding sites in brain [1]: EXP655-sensitive

Molecule: CCOC(=O)C(CCc1ccccc1)NC(C)C(=O)N1CC2(CC3CCC2CC3)CC1C(=O)O (stereo not drawn) [Hoe 288]
- effect on muscarinic receptor blockade on performance [6]: partially antagonized the effects of muscarinic receptor blockade on performance

Molecule: NCCCC[C@H](OP(=O)(O)CCCCc1ccccc1)C(=O)N1CCC[C@H]1C(=O)O [SQ 29852]
- effect on an anticholinergic effect on performance [7]: ameliorate, at least in part

Molecule: C[C@H](CS)C(=O)N1CCC[C@H]1C(=O)O [captopril]
- effect on renin-induced amnesia (in words) [5]: prevented

Molecule: NC(=O)[C@@H]1CCCN1C(=O)[C@H](Cc1cnc[nH]1)NC(=O)[C@@H]1CCC(=O)N1 [thyrotropin releasing hormone]
- effect on retention of PA response [8]: no effect

Molecule: AI: AI, compared with AII in ACh release (DRVYIHPFHL; Angiotensin-1; UniProt P01019 25-34, looked up)
- effect on potassium-stimulated release of ACh [9]: not AI

Molecule: AII: Angiotensin-II, circulating hormone thought to act as a neuropeptide in the CNS (DRVYIHPF; Angiotensin-2; UniProt P01019 25-32, looked up)
- effect on basal ACh levels [9]: without effects on basal levels
- effect on retention of PA response [8]: disruption in retention of a PA response

Molecule: [1-sarcosine, 8-threonine]angiotensin-II
- effect on AII-induced reduction of ACh release [9]: antagonized

Molecule: lysine-8-vasopressin
- effect on retention of PA response [8]: no effect

B1: renin: Renin (Sigma Chemicals), a stimulator of endogenous AII biosynthesis (protein, UniProt P00797 67-406, looked up)
Renin: LTLGNTTSSVILTNYMDTQYYGEIGIGTPPQTFKVVFDTGSSNVWVPSSKCSRLYTACVYHKLFDASDSSSYKHNGTELTLRYSTGTVSGFLSQDIITVGGITVTQMFGEVTEMPALPFMLAEFDGVVGMGFIEQAIGRVTPIFDNIISQGVLKEDVFSFYYNRDSENSQSLGGQIVLGGSDPQHYEGNFHYINLIKTGVWQIQMKGVSVGSSTLLCEDGCLALVDTGASYISGSTSSIEKLMEALGAKKRLFDYVVKCNEGPTLPDISFHLGGKEYTLTSADYVFQESYSSKKLCTLAIHAMDIPPPTGPTWALGATFIRKFYTEFDRRNNRIGFALAR
- memory deficit / amnesia produced by renin (in words) ([5]; IVT, passive avoidance): produces a reliable memory deficit in rats; also recorded: dose-related amnesia in a PA task
- AII in CSF after renin [10]: about 5000 fmol per mL
